From patent US20260315609A1, “MIXED VASOPRESSIN RECEPTOR AGONIST-ANTAGONIST FOR TREATING END-STAGE LIVER DISEASE AND COMPLICATIONS ASSOCIATED THEREOF” (FERRING B.V., priority 2022, published 2026)
Like-named read-outs stand apart in the source and are kept apart here. Starred links: 1 amine or outer side, 2 acyl side, 3 side chain; linkers in the order of their positions; H or OH if unused. Positions of bridges follow the written chain, without caps; N, C: chain ends. Non-standard residues stand in square brackets, D forms with d. Residues, ends and D or L forms follow the SMILES beside them. Chains are numbered I, II in the order given. *: point of attachment. isoGln = NC(=O)[C@H](CCC(=O)[*:2])N[*:1]; εLys = N[C@@H](CCCCN[*:1])C(=O)[*:2]; Dab = NCC[C@H](N)C(=O)O; PhAc = O=C(Cc1ccccc1)*

Assays:
[1] = system: methionine/choline-deficient (MCD) diet rats; experiment: MAP / ΔMAP in methionine/choline-deficient (MCD) diet rats; format: in vivo, rat; conditions: for Δ MAP (mean): SC, MCD diet rats
Procedure: The terlipressin dose was 100 μg/kg.
Data were evaluated as change […] from baseline.

[2] = Metabolite pattern (M1, M5) in human plasma after i.v. infusion and s.c. injection; format: in vivo
Procedure: (§1) Urinalysis was performed locally by means of a dip-stick test. […] In case any result of the dipstick was abnormal and clinically significant, a new urine test was to be performed. If the abnormal result was confirmed, further examination could be initiated at the discretion of the Investigator. Clinically significant abnormal findings were reported as AEs. The metabolite pattern of Compound 1 in plasma and urine were measured.
In some instances, an objective of the study was to investigate metabolite pattern of Compound 1 in plasma and urine.
Due to analytical method interference, it was not possible to analyses for metabolites in human urine. After i.v. administration, the metabolite M1 was present only at low concentrations in one subject in the male and 4 subjects in the female dose group 0.6 mg, while it was present in all females and 5 of the 6 males in the 0.9 mg dose group, albeit with few exceptions below LOQ (FIG. 44, panel A).

[3] = Safety and tolerability / adverse events in healthy subjects; format: in vivo, human
From the text: The terms “adverse event” or “AE” as used herein, refer to an untoward medical occurrence in an individual, such as an individual participating in a clinical trial. In some instances, an AE is an unfavorable and/or unintended sign, symptom, or disease, such as being temporally associated with the use of an investigative medicinal product (IMP), whether or not considered to be caused by the IMP. For example, an AE can include accidental injuries, reasons for any change in medication (drug and/or dose), reasons for any medical, nursing or pharmacy consultation, or reasons for admission to hospital or surgical procedures, and overdoses and medication errors with or without clinical consequences. In some instances, AEs are anticipated based on the pharmacological effect of the IMP. In some instances, an AE is a laboratory abnormality, vital sign or finding from physical or gynecological examination assessed as clinically significant by the investigator. In some instances, a pre-treatment adverse event is any untoward medical occurrence arising or observed between signing of informed consent and the first administration of the IMP. In some instances, a treatment emergent adverse event is an AE occurring after the administration of the IMP and within the time of residual drug effect, or a pre-treatment adverse event or pre-existing medical condition that worsens in intensity after administration of the IMP and within the time of residual drug effect.
Injection site reactions were assessed by the Investigator in treatment Period 2 only, immediately after, 0.5, 4, and 24 hours after subcutaneous administration of the study drug on Days 1 to 5. The injection site reactions to be assessed were erythema, pain, pruritus, oedema, bruising, and pallor, each to be assessed as none, mild, moderate, or severe. Injection site reactions other than those described above or persisting longer than 24 hours were classified as adverse events (AEs).
Blood samples for hematology and hemostasis parameters were collected on Day −1, and at 2, and 4 hours after the administration on Day 1, pre-dose, and 3 hours after the administration on Days 2-4, pre-dose, and at 2, and 6 hours after the administration on Day 5 and at follow-up. The actual sampling times were recorded.
as §1

[4] = Excretion of Compound 1 in urine of healthy subjects; format: in vivo, human; conditions: for dose excreted: human, urine, read-out: fraction of dose excreted unchanged in urine
Procedure: as §1
In some instances, endpoints of the study were: vital signs (e.g., supine blood pressure, pulse, and body temperature), electrocardiogram (ECG) (e.g., intervals, rhythm, and morphology), cardiac function (e.g., cardiac output using echocardiography), peripheral blood flow/tissue perfusion (e.g., by skin color), venous blood gases (e.g., lactate), urinary output, clinical chemistry, hematology, hemostasis, and urinalysis, adverse events (AEs) (e.g., type, frequency, and intensity), pharmacokinetics (e.g., AUC, AUCt, AUCτ, % Extrap AUC, Cmax, tmax, CL, Vz, t1/2, MRT, Vss, F, Ae, and CLR), and metabolite pattern in plasma and urine.

[5] = i.v., Period 1, active treatment
[6] = s.c., Period 2, active treatment

Structure (SMILES): CC[C@H](C)[C@@H]1NC(=O)[C@H](Cc2ccccc2)NC(=O)[C@@H](N)CSSC[C@@H](C(=O)N2CCC[C@H]2C(=O)N[C@@H](CCNC(=O)[C@@H](N)CCCCNC(=O)[C@H](CCCCNC(C)=O)NC(=O)CC[C@H](NC(=O)[C@H](CCCNC(=N)N)NC(=O)[C@@H]2CCCN2C(=O)[C@H](C)NC(=O)[C@H](CC(N)=O)NC(=O)[C@H](CCC(N)=O)NC(=O)[C@H](Cc2ccccc2)NC(=O)[C@@H](Cc2ccc(OC)cc2)NC(=O)Cc2ccccc2)C(N)=O)C(=O)NCC(N)=O)NC(=O)[C@H](CC(N)=O)NC(=O)[C@H](CCC(N)=O)NC1=O [Compound 1, Glycinamide, L-cysteinyl-L-phenylalanyl-L-isoleucyl-L-glutaminyl-L-asparaginyl-L-cysteinyl-L-prolyl-N4-(phenylacetyl-O-methyl-D-tyrosyl-L-phenylalanyl-L-glutaminyl-L-asparaginyl-L-alanyl-L-prolyl-L-arginyl-L-isoglutamyl-N5-acetyl-L-lysyl-L-ε-lysyl)-L-2,4-diaminobutyryl-, cyclic (1→6)-disulfide] (I: H-CFIQNCP[Dab]G-NH2 / II: PhAc-[dY](Me)FQNAPR[isoGln]K(Ac)[εLys]; disulfide I:1-I:6; amide I:8-II:C)
- Δ MAP (mean) ([1]; 25 μg/kg, 0 min): 0.0 mmHg
- Δ MAP (mean) ([1]; 25 μg/kg, 1 min): 1.1 mmHg
- Δ MAP (mean) ([1]; 25 μg/kg, 2 min): 1.9 mmHg
- Δ MAP (mean) ([1]; 25 μg/kg, 3 min): 2.6 mmHg
- Δ MAP (mean) ([1]; 25 μg/kg, 5 min): 3.5 mmHg
- Δ MAP (mean) ([1]; 25 μg/kg, 7 min): 4.0 mmHg
- Δ MAP (mean) ([1]; 25 μg/kg, 10 min): 4.8 mmHg
- Δ MAP (mean) ([1]; 25 μg/kg, 15 min): 5.3 mmHg
- Δ MAP (mean) ([1]; 25 μg/kg, 20 min): 5.2 mmHg
- Δ MAP (mean) ([1]; 25 μg/kg, 30 min): 4.4 mmHg
- Δ MAP (mean) ([1]; 25 μg/kg, 60 min): 3.0 mmHg
- Δ MAP (mean) ([1]; 25 μg/kg, 90 min): 3.1 mmHg
- Δ MAP (mean) ([1]; 100 μg/kg, 0 min): 0.0 mmHg
- Δ MAP (mean) ([1]; 100 μg/kg, 1 min): 2.0 mmHg
- Δ MAP (mean) ([1]; 100 μg/kg, 2 min): 3.5 mmHg
- Δ MAP (mean) ([1]; 100 μg/kg, 3 min): 4.4 mmHg
- Δ MAP (mean) ([1]; 100 μg/kg, 5 min): 7.0 mmHg
- Δ MAP (mean) ([1]; 100 μg/kg, 7 min): 8.5 mmHg
- Δ MAP (mean) ([1]; 100 μg/kg, 10 min): 9.9 mmHg
- Δ MAP (mean) ([1]; 100 μg/kg, 15 min): 11.0 mmHg
- Δ MAP (mean) ([1]; 100 μg/kg, 20 min): 11.3 mmHg
- Δ MAP (mean) ([1]; 100 μg/kg, 30 min): 10.6 mmHg
- Δ MAP (mean) ([1]; 100 μg/kg, 60 min): 10.9 mmHg
- Δ MAP (mean) ([1]; 100 μg/kg, 90 min): 9.2 mmHg
- Δ MAP (mean) ([1]; 500 μg/kg, 0 min): 0.0 mmHg
- Δ MAP (mean) ([1]; 500 μg/kg, 1 min): 2.2 mmHg
- Δ MAP (mean) ([1]; 500 μg/kg, 2 min): 4.5 mmHg
- Δ MAP (mean) ([1]; 500 μg/kg, 3 min): 6.4 mmHg
- Δ MAP (mean) ([1]; 500 μg/kg, 5 min): 9.1 mmHg
- Δ MAP (mean) ([1]; 500 μg/kg, 7 min): 12.1 mmHg
- Δ MAP (mean) ([1]; 500 μg/kg, 10 min): 14.7 mmHg
- Δ MAP (mean) ([1]; 500 μg/kg, 15 min): 13.6 mmHg
- Δ MAP (mean) ([1]; 500 μg/kg, 20 min): 13.7 mmHg
- Δ MAP (mean) ([1]; 500 μg/kg, 30 min): 11.4 mmHg
- Δ MAP (mean) ([1]; 500 μg/kg, 60 min): 9.1 mmHg
- Δ MAP (mean) ([1]; 500 μg/kg, 90 min): 10.2 mmHg
- highest observed absolute MAP ([1]; SC 25 μg/kg): 79.2±1.4 mmHg
- highest observed absolute MAP ([1]; SC 100 μg/kg): 86.8±2.5 mmHg
- highest observed absolute MAP ([1]; SC 500 μg/kg): 90.4±3.7 mmHg
- maximum ΔMAP ([1]; SC 25 g/kg (so in the source)): 5.3±1.1 mmHg
- half-life ([2]; i.v.): ~4 h
- half-life ([2]; s.c.): about 2 hours
- conversion of Compound 1 to M1 ([2]; s.c. (bolus) injection, human): 80-90%
- severe AEs ([3]; i.v. 0.1 mg (bradycardia)): One
- TEAEs regarded as ADRs ([3]; i.v., 34 subjects on active treatment): 87
- serious AEs ([3]; i.v., Period 1): No serious AEs occurred
- number of TEAEs [3, 5]: 94
- subjects with TEAEs [3, 5]: 35 of the 48
- maximum tolerated s.c. dose (MTD) ([3]; s.c.): about 0.1 mg
- severe AEs ([3]; s.c. 0.1 mg (abdominal pain)): 3
- subjects with moderate oedema and mild pain at injection site ([3]; s.c. 0.1 mg, 30 min): 1 subject
- severe AEs ([3]; s.c. 0.3 mg (abdominal pain, back pain), 1 subject): 2
- serious AEs leading to discontinuation ([3]; s.c. 0.3 mg (elevated troponin I)): 1
- injection site reactions ([3]; s.c. (bolus) injection): Erythema, pallor, and pruritus of mild severity
- TEAEs regarded as ADRs ([3]; s.c., 9 subjects on active treatment): 87
- AE leading to death ([3]; s.c., Period 2): No AE led to death
- number of TEAEs [3, 6]: 87
- subjects with TEAEs [3, 6]: 9 subjects
- tolerability ([3]; single i.v. infusion, about 0.9 mg or less): safe and well tolerated
- dose excreted ([4]; iv): < 10%
- dose excreted ([4]; sc): < 5%
- amount excreted in urine, 4-8 hours ([4]; i.v. 0.1 mg): about 3 μg
- amount excreted in urine, 4-8 hours ([4]; i.v. 0.3 mg): ~9 µg
- amount excreted in urine, 4-8 hours ([4]; i.v. 0.45 mg): ~16 µg
- amount excreted in urine, 4-8 hours ([4]; i.v. 0.6 mg): ~24 µg
- amount excreted in urine, 4-8 hours ([4]; i.v. 0.9 mg): ~37 µg
- amount excreted in urine, first 4 hours ([4]; s.c. 0.1 mg, 1st administration): about 2 μg
- amount excreted in urine, first 4 hours ([4]; s.c. 0.1 mg, 5th administration): about 0.3 μg
- amount excreted in urine, first 4 hours ([4]; s.c. 0.3 mg, 1st administration): ~3 µg
- amount excreted in urine, first 4 hours ([4]; s.c. 0.3 mg, 5th administration): ~1.5 µg
